Source: ChEMBL document CHEMBL3044579, “Modified benzoxazinones in the system Oryza sativa-Echinochloa crus-galli: an approach to the development of biorational herbicide models” (J Agric Food Chem, 2008)

Experiments:
[1] = Selectivity index, ratio of IC50 for Oryza sativa L. seeds to IC50 for Echinochloa crus-galli L. seeds
Echinochloa crus-galli [2] = experiment: Herbicidal activity against Echinochloa crus-galli (barnyard grass) seeds assessed as inhibition of root growth at 25 degC measured after 5 days; type: functional, organism-based; details: 120 h
Oryza sativa = experiment: Phytotoxic activity against Oryza sativa (rice) seeds assessed as inhibition of root growth at 25 degC measured after 7 days by crop selectivity assay; type: organism-based; details: L., 168 h
[3] = Phytotoxic activity against Oryza sativa (rice) seeds assessed as inhibition of root growth at 48 uM at 25 degC measured after 7 days by crop selectivity assay; type: organism-based, L.; details: read-out: GI
Echinochloa crus-galli [4] = experiment: Ratio of propanil IC50 to compound IC50 for Echinochloa crus-galli (barnyard grass) seeds measured after 5 days; type: functional
Echinochloa crus-galli [5] = experiment: Herbicidal activity against Echinochloa crus-galli (barnyard grass) seeds assessed as inhibition of root growth at 48 uM at 25 degC measured after 5 days; type: functional; details: 120 h, read-out: GI

Structure (SMILES) | Ratio IC50 [1] | IC50 (Echinochloa crus-galli [2]) [µM] | IC50 (Oryza sativa) [µM] | other results
O=C1COc2ccccc2N1O | 0.6 | 234 | 149 | –
CCCCC1Oc2ccccc2N(O)C1=O [2-Butyl-D-DIBOA] | 2.21 | 189 | 417 | –
CCOC(=O)C1(C)Oc2ccccc2N(O)C1=O [2-Ethoxycarbonyl-2-methyl-D-DIBOA] | 4.42 | 654 | 2890 | –
CCOC(=O)C1Oc2ccccc2N(O)C1=O [2-Ethoxycarbonyl-D-DIBOA] | 5.03 | 290 | 1460 | –
CCC1Oc2ccccc2N(O)C1=O [2-Ethyl-D-DIBOA] | 8.35 | 39 | 326 | inhibition at 168 h, 48 µM [3]: 20%; Ratio IC50 (Echinochloa crus-galli [4]): 3; inhibition of growth at 48 µM (Echinochloa crus-galli [5]): 50%
CCCCCCC1Oc2ccccc2N(O)C1=O [2-Hexyl-D-DIBOA] | 1.77 | 5590 | 9880 | –
CC1Oc2ccccc2N(O)C1=O [2-Methyl-D-DIBOA] | 1.62 | 298 | 483 | –
O=C1C(c2ccccc2)Oc2ccccc2N1O [2-Phenyl-D-DIBOA] | 2.96 | 204 | 603 | –
CCCC1Oc2ccccc2N(O)C1=O [2-Propyl-D-DIBOA] | 2.05 | 162 | 331 | –
CC(=O)ON1C(=O)COc2ccccc21 [ABOA] | – | 7180 | – | –
CCCC(=O)ON1C(=O)COc2ccccc21 [BU-D-DIBOA] | – | 2440 | – | –
CCCCCCCCCC(=O)ON1C(=O)COc2ccccc21 [DEC-D-DIBOA] | – | 107 | – | –
CCCCCCC(=O)ON1C(=O)COc2ccccc21 [HEPT-D-DIBOA] | – | 537 | – | –
CCCCCC(=O)ON1C(=O)COc2ccccc21 [HEX-D-DIBOA] | – | 1200 | – | –
CCCCCCCCCCCC(=O)ON1C(=O)COc2ccccc21 [LAU-DIBOA] | – | 170 | – | –
CCCCCCCCCCCCCC(=O)ON1C(=O)COc2ccccc21 [MIR-D-DIBOA] | – | 206 | – | –
CCCCCCCCC(=O)ON1C(=O)COc2ccccc21 [NON-D-DIBOA] | – | 1440 | – | –
CCCCCCCC(=O)ON1C(=O)COc2ccccc21 [OCT-D-DIBOA] | – | 448 | – | –
CCC(=O)ON1C(=O)COc2ccccc21 [PR-D-DIBOA] | – | 1090 | – | –
CCC(=O)Nc1ccc(Cl)c(Cl)c1 [PROPANIL] | – | 114 | – | –
CCCCCCCCCCCCC(=O)ON1C(=O)COc2ccccc21 [TRIDEC-D-DIBOA] | – | 359 | – | –
CCCCCCCCCCC(=O)ON1C(=O)COc2ccccc21 [UNDEC-D-DIBOA] | – | 422 | – | –
CCCCC(=O)ON1C(=O)COc2ccccc21 [VAL-D-DIBOA] | – | 1150 | – | –
